Measured values as given in paper PMC5962729 (Frontiers in Pharmacology, 2018).
Values belong to the compound of their own block, whether it stands above or below them.

Legend:
[1] = Pharmacokinetic study of YCHD components and phase II metabolites in normal rats (UHPLC-MS/MS, sulfatase enzymolysis); type: in vivo, rat; conditions: for Tmax: po, 12 g/kg; for CL/F: read-out: CLz/F; for Vd/F: read-out: Vz/F; for direct detection of the prototype in rat plasma after YCHD administration: before enzymolysis, transformed into phase II metabolites completely
Procedure: (§1) To explore the pharmacokinetic properties of YCHD following intragastric administration in rats, a rapid and sensitive method involving the use of UHPLC-MS/MS (Agilent 6460 series, Agilent Technologies, Santa Clara, CA, United States) was developed and validated for the simultaneous quantification of 10 active components of rat plasma. The quantification was conducted in ESI negative ionization mode, and the mass spectrometry conditions were as follows: capillary voltage, 3500 V; gas flow, 12 L/min; nebulizer, 40 psi; gas temperature, 350°C; and delta EMV (-), 400. A 5 μL extraction sample was injected into the column (Agilent SB-C18 column, 2.1 mm × 50 mm, 1.8 μm) and eluted at 0.4 mL/min with a gradient elution of water (with 0.4% v/v formic acid) (A) and acetonitrile (B) (0–3 min, 5–60% B; 3–5 min, 60–90% B; 5–5.1 min, 90–5% B; and re-equilibration for 3 min).
(§2) To each 50 μL plasma sample, 10 μL of internal standard solution (paeoniflorin, 1000 ng/mL) and 300 μL of a mixed solution of methanol and acetonitrile (v/v, 1:1; containing 1% formic acid) were added. Subsequently, the solution was vortex mixed for 5 min. After centrifugation at 15,000 rpm for 5 min, the supernatant was transferred completely into a tube, before being evaporated under N2 at 40°C. The residue was then dissolved in 50 μL of 50% methanol–water (v/v, 1:1) through vortexing for 5 min, after centrifugation at 15,000 rpm for 10 min. Finally, 5 μL of the supernatant sample was injected into the UHPLC-MS/MS system for analysis.
The rats were randomly divided into two groups (n = 5 for each group). […] After 24 h, the two groups of rats received a single oral dose of YCHD (12 g/kg). Blood was collected in heparinized tubes at 5, 15, 30, 45, 60, 120, 240, 360, 480, 720, and 1440 min after administration. The blood samples were centrifuged at 4000 rpm for 10 min, and the supernatant plasma was harvested. Plasma samples (50 μL) were immediately processed as outlined in Section “Chromatographic and Mass Spectrometry Conditions.”
(§3) Additional plasma samples (50 μL) were enzymatically hydrolyzed with 50 μL of enzyme solution (65.86 mg of sulfatase, dissolved in 2 mL of sodium acetate buffer, pH 5.0) for phase II metabolite quantification, in accordance with our previous study ([Ding et al., 2012]). After being vortex mixed for 5 min, the mixture was incubated at 37°C for 30 min and then returned to room temperature. Subsequently, the samples were processed as outlined in Section “Chromatographic and Mass Spectrometry Conditions” for UHPLC-MS/MS analysis. During routine analysis, each analytical run included six blank plasma samples, a set of calibration samples, a set of QC samples, and unknowns.
(§4) All data are presented as mean ± SD. A one-way analysis of variance was used to compare data between two groups using SPSS (Version 21.0). The differences were considered to be statistically significant when p < 0.05 and highly significant when p < 0.01 or p < 0.001. Pharmacokinetic data analysis was performed using DAS 2.1.1 software (Mathematical Pharmacology Professional Committee of China, Shanghai, China).
After sulfatase-aided enzymolysis, all the phase II metabolites could transform into their prototypes, including rhein, emodin, genipin, and capillarisin. The specific contents of the phase II metabolites of these components were detected indirectly by evaluating the content difference of their prototypes in samples after enzymolysis and before enzymolysis
(§5) CG = Ca −[MG × (CGG/MGG + CGe/MGe)]
Ca, CGG, and CGe represent the concentration of genipin, genipin-1-β-D-gentiobioside, and geniposide after enzymolysis of sulfatase, respectively. MG, MGG-, and MGe represent the mass of genipin, genipin-1-β-D-gentiobioside, and geniposide, respectively. The pharmacokinetic curves of phase II metabolites are illustrated in Figure 4B.

[2] = Pharmacokinetic study of YCHD components and phase II metabolites in ANIT-induced cholestatic rats (UHPLC-MS/MS, sulfatase enzymolysis); type: in vivo, rat; conditions: for AUC(0-∞) / Ka: Model group (ANIT 50 mg/kg cholestatic rats); for AUC(0-∞) / Ka / Cmax / Tmax / CL/F / MRT inf / Vd/F / half-life: plasma; for Cmax / Tmax / CL/F / MRT inf / Vd/F / half-life: rat, po, 12 g/kg; for CL/F: read-out: CLz/F; for MRT inf: read-out: MRT (0-∞) (converted); for Vd/F: read-out: Vz/F; for half-life: read-out: t1/2z
Procedure: as §1, with “400.” for “400. A 5 μL extraction sample was injected into the column (Agilent SB-C18 column, 2.1 mm × 50 mm, 1.8 μm) and eluted at 0.4 mL/min with a gradient elution of water (with 0.4% v/v formic acid) (A) and acetonitrile (B) (0–3 min, 5–60% B; 3–5 min, 60–90% B; 5–5.1 min, 90–5% B; and re-equilibration for 3 min).”
as §2
The rats were randomly divided into two groups (n = 5 for each group). […] The blood samples were centrifuged at 4000 rpm for 10 min, and the supernatant plasma was harvested. Plasma samples (50 μL) were immediately processed as outlined in Section “Chromatographic and Mass Spectrometry Conditions.”
as §3, §4
The specific contents of the phase II metabolites of these components were detected indirectly by evaluating the content difference of their prototypes in samples after enzymolysis and before enzymolysis
as §5
Ca, CGG, and CGe represent the concentration of genipin, genipin-1-β-D-gentiobioside, and geniposide after enzymolysis of sulfatase, respectively. MG, MGG-, and MGe represent the mass of genipin, genipin-1-β-D-gentiobioside, and geniposide, respectively.

[3] = Identification of components and metabolites of YCHD in rat plasma, bile, urine and feces (UHPLC/Q-TOF-MS); type: in vivo; conditions: rats, oral YCHD 12 g/kg, urine, feces
Procedure: After centrifuging at 4000 rpm for 10 min, supernatant plasma was harvested into heparinized tubes and then stored at -20°C for preservation. The rats in the second group (n = 6) were kept individually in metabolic cages to collect urine and feces. […] Subsequently, the rats were orally administered a single dose of YCHD (12 g/kg of body weight). […] For the third group of rats (n = 6), bile duct intubation was implemented, and blank bile samples were collected before administration. After the administration of YCHD at 12 g/kg of body weight, the drug-containing bile samples were collected.
Plasma, bile, and urine samples (200 μL each) were separately precipitated with six times of methanol–acetonitrile mixed solution (v/v, 1:1; containing 1% formic acid). After being vortex mixed for 5 min and centrifuged at 15,000 rpm for 5 min at 4°C, the supernatant was separated into another clean tube and dried under a gentle stream of nitrogen at 45°C. Subsequently, the residue was reconstituted in 100 μL of 50% methanol–water (v/v) and then vortex mixed for 10 min. After another round of centrifugation at 15,000 rpm for 5 min at 4°C, 5 μL of the supernatant was analyzed by UHPLC-MS/MS. A 0.5 g sample of naturally dried feces was supplemented with 2 mL of 80% methanol–water (v/v) and then ultrasonically extracted for 30 min at 4°C. After being centrifuged at 15,000 rpm for 10 min, the supernatant was dried under a gentle stream of nitrogen at 45°C. Finally, the residue was reconstituted in 1 mL of 50% methanol–water (v/v) and then vortex mixed for 10 min. After another round of centrifugation at 15,000 rpm for 5 min at 4°C, 5 μL of the supernatant sample was injected into the UHPLC-MS/MS system for analysis.
Separations were conducted on an Agilent SB-C18 column (2.1 mm × 50 mm, 1.8 μm) of a UHPLC/Q-TOF-MS system (Waters, Corp., Milford, MA, United States) maintained at 40°C.
A Synapt G2 quadrupole time-of-flight (Q/TOF) MS/MS system (Waters, Corp., Manchester, United Kingdom) equipped with an electrospray ionization (ESI) interface was operated in negative ionization mode and controlled by MassLynx software (Version 4.1). The optimized conditions for maximum detection of metabolites were as follows: the capillary voltage was set at 3.0 kV, extraction cone voltage was set at 10 and 15 V, source temperature was maintained at 120°C, and desolvation temperature was maintained at 450°C. […] An MS^E approach using a dynamic ramp of collision energy was also applied at two (low and high collision energies) scan functions. The following parameters were set: Function 1 (low energy)—mass scan range, 100–1000; scan time, 0.25 s; interscan delay, 0.05 s; collision energy, 4 V. Function 2 (high energy)—mass scan range, 100–1000; scan time, 0.2 s; interscan delay, 0.05 s; collision energy ramp, 10–30 V. Data were acquired using Masslynx^TM (Version 4.1. Waters, Crop., Milford, MA, United States), and Metabolynx^TM (Waters, Crop., Milford, MA, United States) was applied for post-acquisition data processing.

[4] = Control group (normal rats), single oral YCHD 12 g/kg, plasma
[5] = Sprague Dawley, rat, plasma, in normal and cholestatic rats after oral administration of YCHD
[6] = Sprague Dawley, rat, Control group (normal rats), single oral YCHD 12 g/kg, plasma
[7] = rat, Control group (normal rats), single oral YCHD 12 g/kg, plasma

AUC(0-∞) [1, 4]: 63847.8 ± 53249.0 µg·min/L
Ka [1, 4]: 119.2 ± 82.6 min⁻¹
Tmax ([1]; Sprague Dawley, rat, plasma, Control group (normal rats), single oral YCHD 12 g/kg, plasma): 15 min
Tmax [1, 5]: ≤ 27 min
Cmax [1, 6]: 0.286 ± 0.0145 µg/mL
CL/F [1, 6]: 26.7 ± 2.28 L/h/kg
MRT inf ([1]; Sprague Dawley, rat, Control group (normal rats), single oral YCHD 12 g/kg, plasma, read-out: MRT (0-∞) (converted)): 85.3 min
Vd/F [1, 7]: 35.7 ± 29.1 L/kg
half-life ([1]; rat, Control group (normal rats), single oral YCHD 12 g/kg, plasma, read-out: t1/2z): 56.3 ± 43 min
AUC(0-∞) ([2]; single oral YCHD 12 g/kg): 32651.4 ± 19640.7 µg·min/L
Ka ([2]; single oral YCHD 12 g/kg): 75.2 ± 24.5 min⁻¹
Cmax ([2]; Sprague Dawley): 0.0789 ± 0.0049 µg/mL
Tmax ([2]; Sprague Dawley): 24 min
CL/F ([2]; Sprague Dawley): 71.3 ± 5.7 L/h/kg
MRT inf ([2]; Sprague Dawley): 103 min
Vd/F [2]: 132 ± 39.7 L/kg
half-life [2]: 80.1 ± 27.5 min
AUC(0-∞) increased by, cholestatic model rats compared with normal rats ([2]; single oral YCHD 12 g/kg): 191.3%
AUC(0-∞) reduced by, cholestatic model rats compared with normal rats ([2]; single oral YCHD 12 g/kg): 48.9%
Cmax increased by, cholestatic model rats compared with normal rats ([2]; single oral YCHD 12 g/kg): 138.8%
Cmax reduced by, cholestatic model rats compared with normal rats ([2]; single oral YCHD 12 g/kg): 72.4%
Structure (SMILES): O=C(O)/C=C/c1ccc(O)c(O)c1 [Caffeic acid]

direct detection of the prototype in rat plasma after YCHD administration [1]: could not be detected directly
Source (biological samples in which the compound was identified) [3]: Urine, feces
Structure (SMILES): COc1c(O)cc2oc(Oc3ccc(O)cc3)cc(=O)c2c1O [Capillarisin]

AUC(0-∞) [1, 4]: 11559.2 ± 5248.0 µg·min/L
Ka [1, 4]: 19.0 ± 16.288 min⁻¹
Tmax [1, 5]: ≤ 27 min
Tmax ([1]; rat, plasma, Control group (normal rats), single oral YCHD 12 g/kg, plasma): 15 min
Cmax [1, 7]: 0.033 ± 0.0045 µg/mL
CL/F [1, 7]: 89 ± 55.3 L/h/kg
Vd/F [1, 7]: 3800 ± 2060 L/kg
AUC(0-∞) ([2]; single oral YCHD 12 g/kg): 21437.2 ± 12572.8 µg·min/L
Ka ([2]; single oral YCHD 12 g/kg): 38.945 ± 18.022 min⁻¹
Cmax [2]: 0.0789 ± 0.0049 µg/mL
Tmax [2]: 27 min
CL/F [2]: 81.7 ± 31.4 L/h/kg
MRT inf [2]: 1990 min
Vd/F [2]: 2110 ± 1660 L/kg
half-life [2]: 1660 ± 2120 min
Structure (SMILES): O=C(/C=C/c1ccc(O)c(O)c1)O[C@@H]1C[C@](O)(C(=O)O)C[C@@H](O)[C@H]1O [Chlorogenic acid]

direct detection of the prototype in rat plasma after YCHD administration [1]: could not be detected directly
Source (biological samples in which the compound was identified) [3]: Plasma, bile, urine, feces
Structure (SMILES): Cc1cc(O)c2c(c1)C(=O)c1cc(O)cc(O)c1C2=O [Emodin]

direct detection of the prototype in rat plasma after YCHD administration [1]: could not be detected directly
Source (biological samples in which the compound was identified) [3]: Bile, urine, feces
Structure (SMILES): COC(=O)C1=CO[C@@H](O)[C@@H]2C(CO)=CC[C@H]12 [Genipin]

Source (biological samples in which the compound was identified) [3]: Plasma, bile, urine, feces
Structure (SMILES): COC(=O)C1=COC(OC2OC(C(=O)O)C(O)C(O)C2O)C2C(CO)=CCC12 (stereo not shown) [M2, Genipin-1-O-gluA]

Source (biological samples in which the compound was identified) [3]: Bile, urine, feces
Structure (SMILES): COC(=O)C1=COC(OS(=O)(=O)O)C2C(CO)=CCC12 (stereo not shown) [M3, Genipin-1-O-SO3]

Source (biological samples in which the compound was identified) [3]: Plasma, bile, urine, feces
Structure (SMILES): CC(=O)c1ccc(OS(=O)(=O)O)cc1 [M6, 4-Hydroxyacetophenone-1-O-SO3]

Structure (SMILES): Cc1cc(O)c2c(c1)C(=O)c1cc(OS(=O)(=O)O)cc(O)c1C2=O [M7, Emodin-O-SO3]
Source (biological samples in which the compound was identified) [3]: Plasma, urine, feces
